The NIST ThermoML archive (doi:10.1016/j.jct.2016.06.018)
Numbers after ± are expanded uncertainties.

Assay: mn = molality of the nth substance listed, in mol/kg
Conditions: 101 kPa, Liquid, Vibrating tube method

CCCCCCCCCCCC[N+](C)(C)CCOc1ccccc1.[Br-] [Domiphen bromide] + O
mass density [kg/m3]
Conditions | 293.15 K | 298.15 K | 303.15 K | 308.15 K
m1 = 0.04 | 999.65 ± 1 | 998.37 ± 1 | 996.97 ± 1 | 995.39 ± 1
m1 = 0.08 | 1000.98 ± 1 | 999.84 ± 1 | 998.36 ± 1 | 996.78 ± 1
